Results taken from the NIST ThermoML archive (doi:10.1016/j.tca.2011.10.010).
± gives the expanded uncertainty stated by the source.

Experiment: xn = mol fraction of the nth substance listed
Conditions: 101 kPa, Liquid, Vibrating tube method

CCN(CC)CCO.Cl [2-(diethylamino)ethanol hydrochloride] + OCC(O)CO
mass density [kg/m3]
Conditions	x1 = 0.2	x1 = 0.25	x1 = 0.33
298.15 K	1220.1 ± 12	1205.1 ± 12	–
303.15 K	1217.3 ± 12	1202 ± 12	1170 ± 12
308.15 K	1214.1 ± 12	1199 ± 12	–
313.15 K	1211.4 ± 12	1196.1 ± 12	1163.8 ± 12
318.15 K	1208.1 ± 12	1192.9 ± 12	–
323.15 K	1204.8 ± 12	1188.4 ± 12	1158.5 ± 12
328.15 K	1202.1 ± 12	1186.8 ± 12	–
333.15 K	1198.9 ± 12	1184 ± 12	1153.1 ± 12
338.15 K	1196.1 ± 12	1180.7 ± 12	–
343.15 K	1193.6 ± 12	1177.7 ± 12	1145.8 ± 12
348.15 K	1190.1 ± 12	1174.6 ± 12	–
353.15 K	1187.3 ± 12	1171.9 ± 12	1140.3 ± 12
358.15 K	1184.1 ± 12	1168.5 ± 12	–
363.15 K	1180.7 ± 12	1166.1 ± 12	1134.4 ± 12
368.15 K	1178.1 ± 12	1162.4 ± 12	–

CCN(CC)CCO.Cl [2-(diethylamino)ethanol hydrochloride] + OCCO
mass density [kg/m3]
Conditions	x1 = 0.2	x1 = 0.25	x1 = 0.33
298.15 K	1103.7 ± 12	–	1099.5 ± 12
303.15 K	1100.4 ± 12	1098.6 ± 12	1096.5 ± 12
308.15 K	1097.3 ± 12	–	1093.3 ± 12
313.15 K	1094.2 ± 12	1092.6 ± 12	1090.3 ± 12
318.15 K	1091 ± 12	–	1087.1 ± 12
323.15 K	1087.7 ± 12	1086.2 ± 12	1084 ± 12
328.15 K	1084.6 ± 12	–	1080.9 ± 12
333.15 K	1081.5 ± 12	1079.7 ± 12	1077.8 ± 12
338.15 K	1078.2 ± 12	–	1074.8 ± 12
343.15 K	1075 ± 12	1074 ± 12	1071.7 ± 12
348.15 K	1071.8 ± 12	–	1068.6 ± 12
353.15 K	1068.3 ± 12	1067.5 ± 12	1065.5 ± 12
358.15 K	1065.4 ± 12	–	1062.4 ± 12
363.15 K	1062.2 ± 11	1060 ± 11	1059 ± 11
368.15 K	1059 ± 11	–	1056.2 ± 11

C[N+](C)(C)CCO.[Cl-] [choline chloride] + OCC(O)CO
mass density [kg/m3]
Conditions	x1 = 0.25	x1 = 0.33	x1 = 0.5
298.15 K	1203 ± 12	1192 ± 12	–
303.15 K	1200.2 ± 12	1189.5 ± 12	1153.5 ± 12
308.15 K	1197.6 ± 12	1186.7 ± 12	–
313.15 K	1195.1 ± 12	1183.8 ± 12	1148.3 ± 12
318.15 K	1192.2 ± 12	1181.4 ± 12	–
323.15 K	1189.1 ± 12	1177.6 ± 12	1143 ± 12
328.15 K	1186.8 ± 12	1176.1 ± 12	–
333.15 K	1184.4 ± 12	1174.1 ± 12	1137.9 ± 12
338.15 K	1181.4 ± 12	1170.8 ± 12	–
343.15 K	1178.1 ± 12	1167.4 ± 12	1132.6 ± 12
348.15 K	1176 ± 12	1165.5 ± 12	–
353.15 K	1173.2 ± 12	1163.5 ± 12	1126.6 ± 12
358.15 K	1170.6 ± 12	1160.2 ± 12	–
363.15 K	1167.8 ± 12	1157.1 ± 12	1122 ± 12
368.15 K	1165.2 ± 12	1154.9 ± 12	–

C[N+](C)(C)CCO.[Cl-] [choline chloride] + OCCO
mass density [kg/m3]
Conditions	x1 = 0.28	x1 = 0.33	x1 = 0.36
298.15 K	1117 ± 12	–	1118 ± 12
303.15 K	1114.1 ± 12	1114.6 ± 12	1115.6 ± 12
308.15 K	1111.1 ± 12	–	1112.2 ± 12
313.15 K	1108.2 ± 12	1108.8 ± 12	1109.7 ± 12
318.15 K	1105.2 ± 12	–	1106.4 ± 12
323.15 K	1102.3 ± 12	1103.6 ± 12	1103.7 ± 12
328.15 K	1099.3 ± 12	–	1100.6 ± 12
333.15 K	1096.2 ± 12	1097.4 ± 12	1096.8 ± 12
338.15 K	1093.4 ± 12	–	1094.8 ± 12
343.15 K	1090.4 ± 12	1091.6 ± 12	1091 ± 12
348.15 K	1087.5 ± 12	–	1089 ± 12
353.15 K	1084.7 ± 12	1085.4 ± 12	1087 ± 12
358.15 K	1081.6 ± 12	–	1083.2 ± 12
363.15 K	1078.8 ± 12	1079.1 ± 12	1082 ± 12
368.15 K	1075.7 ± 12	–	1077.4 ± 12

C[P+](c1ccccc1)(c1ccccc1)c1ccccc1.[Br-] [methyltriphenylphosphonium bromide] + OCC(O)CO
mass density [kg/m3]
Conditions	x1 = 0.2	x1 = 0.25	x1 = 0.33
298.15 K	1288.9 ± 13	1297.6 ± 13	–
303.15 K	1285.5 ± 13	1294.5 ± 13	1303 ± 13
308.15 K	1281.7 ± 13	1290.6 ± 13	–
313.15 K	1278 ± 13	1287 ± 13	1295.2 ± 13
318.15 K	1274.5 ± 13	1283.6 ± 13	–
323.15 K	1271 ± 13	1280.9 ± 13	1288.6 ± 13
328.15 K	1267.3 ± 13	1276.6 ± 13	–
333.15 K	1263.4 ± 13	1273.6 ± 13	1281.7 ± 13
338.15 K	1260.1 ± 13	1269.6 ± 13	–
343.15 K	1256.8 ± 13	1266 ± 13	1274.9 ± 13
348.15 K	1252.9 ± 13	1262.6 ± 13	–
353.15 K	1249.5 ± 13	1259.3 ± 13	1268.2 ± 13
358.15 K	1245.7 ± 13	1255.6 ± 13	–
363.15 K	1242.3 ± 13	1252.4 ± 13	1261.5 ± 13
368.15 K	1238.5 ± 13	1248.6 ± 13	–

C[P+](c1ccccc1)(c1ccccc1)c1ccccc1.[Br-] [methyltriphenylphosphonium bromide] + OCCO
mass density [kg/m3]
Conditions	303.15 K	313.15 K	323.15 K	333.15 K	343.15 K	353.15 K	363.15 K
x1 = 0.16	1216.3 ± 12	1208.6 ± 12	1202 ± 12	1194.7 ± 12	1187 ± 12	1179.2 ± 12	1172.3 ± 12
x1 = 0.2	1229 ± 12	1222 ± 12	1215.1 ± 12	1207.9 ± 12	1200.6 ± 12	1193.6 ± 12	1186.4 ± 12
x1 = 0.25	1242.4 ± 13	1239.8 ± 13	1232.4 ± 12	1226 ± 12	1218.8 ± 12	1211.9 ± 12	1204.5 ± 12
